Assay results from publication PMC10466331, “Fluorescence polarisation activity-based protein profiling for the identification of deoxynojirimycin-type inhibitors selective for lysosomal retaining alpha- and beta-glucosidases” (Chemical Science, 2023).
Where two headings read alike, the source gives them in different places.

Key:
Assay type in all cases: biochemical
[1] = target: T1, recombinant human GAA (rhGAA, Myozyme) (Homo sapiens, UniProt P10253); assay: competitive FluoPol-ABPP assay on rhGAA with TAMRA-ABP II; conditions: for GAA FP% (residual FP-signal): library screen, 5 μM inhibitor, 25 nM ABP II;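 on all read-outs here: fluorescence polarization read at 540 nm excitation and 590 nm emission, background-corrected, normalized to uninhibited probe labelling as 100% and excess cyclosulfate as 0%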
T1 construct: purchased Genzyme

[2] = target: T2, human recombinant lysosomal α-glucosidase GAA (Myozyme) (Homo sapiens, UniProt P10253); assay: fluorogenic substrate (4MU-α-D-glucopyranoside) assay on rhGAA; conditions: Table S2, 4-MU alpha glucoside substrate, read-out: IC50 on rhGAA
T2 construct: purchased Genzyme

[3] = target: T3, ER α-glucosidase GANAB (from Pompe disease Fibroblast lysates) (Homo sapiens, UniProt Q14697); assay: fluorogenic substrate (4MU-α-D-glucopyranoside) assay on GANAB in Pompe fibroblast homogenates;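 further: inhibitor preincubated 30 min at 37 °C with homogenate, then GANAB activity read after 2 h with 3.0 mM fluorogenic substrate in McIlvaine buffer containing 0.1% BSA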
T3 construct: Cellular homogenates of Pompe fibroblasts (1 mg mL^−1) were used as protein source for GANAB; endogenous in cells; host or cells: Pompe disease fibroblasts (homogenate)
T3 sequence (Q14697 29-944): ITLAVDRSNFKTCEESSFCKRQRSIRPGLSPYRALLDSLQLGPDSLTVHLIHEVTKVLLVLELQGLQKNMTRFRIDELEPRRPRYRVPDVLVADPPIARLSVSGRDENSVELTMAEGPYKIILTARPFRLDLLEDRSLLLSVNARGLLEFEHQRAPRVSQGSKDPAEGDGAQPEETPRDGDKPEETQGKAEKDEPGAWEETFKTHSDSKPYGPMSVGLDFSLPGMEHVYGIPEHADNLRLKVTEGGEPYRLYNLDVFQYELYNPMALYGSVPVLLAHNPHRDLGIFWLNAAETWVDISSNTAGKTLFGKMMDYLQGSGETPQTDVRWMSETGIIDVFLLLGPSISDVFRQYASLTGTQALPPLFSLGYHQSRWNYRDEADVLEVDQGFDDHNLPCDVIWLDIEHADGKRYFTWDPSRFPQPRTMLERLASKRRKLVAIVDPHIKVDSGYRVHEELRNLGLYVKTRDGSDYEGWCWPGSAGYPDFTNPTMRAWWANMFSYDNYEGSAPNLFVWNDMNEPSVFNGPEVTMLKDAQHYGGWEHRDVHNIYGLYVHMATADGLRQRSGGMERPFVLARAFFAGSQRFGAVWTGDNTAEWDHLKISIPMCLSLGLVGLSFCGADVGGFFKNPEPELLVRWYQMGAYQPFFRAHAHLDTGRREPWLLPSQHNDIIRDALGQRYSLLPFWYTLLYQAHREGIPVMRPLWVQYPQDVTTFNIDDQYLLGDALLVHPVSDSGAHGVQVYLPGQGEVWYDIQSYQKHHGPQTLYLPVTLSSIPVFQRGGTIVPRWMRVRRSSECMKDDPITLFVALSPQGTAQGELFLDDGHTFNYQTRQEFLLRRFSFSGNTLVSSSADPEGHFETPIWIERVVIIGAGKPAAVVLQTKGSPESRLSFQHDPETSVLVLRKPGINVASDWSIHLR
T3 sequence (P14314 15-528 partner): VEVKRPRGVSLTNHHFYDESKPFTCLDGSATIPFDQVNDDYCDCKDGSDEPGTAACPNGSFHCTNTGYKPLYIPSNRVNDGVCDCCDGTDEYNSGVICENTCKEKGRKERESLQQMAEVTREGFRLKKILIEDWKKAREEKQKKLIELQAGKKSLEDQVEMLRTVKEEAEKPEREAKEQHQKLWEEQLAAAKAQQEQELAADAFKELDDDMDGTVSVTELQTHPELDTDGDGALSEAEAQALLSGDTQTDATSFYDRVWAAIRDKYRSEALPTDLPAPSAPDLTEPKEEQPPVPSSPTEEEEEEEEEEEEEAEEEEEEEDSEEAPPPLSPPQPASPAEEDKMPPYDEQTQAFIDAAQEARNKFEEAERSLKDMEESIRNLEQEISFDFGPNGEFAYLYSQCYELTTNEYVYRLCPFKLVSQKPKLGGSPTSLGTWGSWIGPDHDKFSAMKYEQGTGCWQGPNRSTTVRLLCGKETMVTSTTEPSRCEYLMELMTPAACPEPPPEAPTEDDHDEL

[4] = Table S2, 4-MU alpha glucoside substrate, read-out: IC50 on GANAB

Row | SMILES | GAA FP% (residual FP-signal) [1] [%] | IC50 [2] [nM] | IC50 [3, 4] [nM] | other results
1 | OC[C@@H]1[C@@H](O)[C@H](O)[C@@H](O)CN1CCCCCOCCC12CC3CC(CC(C3)C1)C2 [#ID 170] | 4.1 | 430 | 1600 | –
2 | C[C@@H](OCCCCCN1C[C@H](O)[C@@H](O)[C@H](O)[C@H]1CO)c1ccc(-c2ccccc2)cc1 [#ID 345] | 1.5 | 58 | 370 | –
3 | CCCCCCCCCOCCCCCN1C[C@H](O)[C@@H](O)[C@H](O)[C@H]1CO [#ID 27] | 8.4 | 280 | 2800 | –
4 | OC[C@@H]1[C@@H](O)[C@H](O)[C@@H](O)CN1CCCCCOCc1ccc(-c2ccccc2)c(F)c1 [#ID 37] | 3.6 | 37 | 1600 | –
5 | OC[C@@H]1[C@@H](O)[C@H](O)[C@@H](O)CN1CCCCCOCc1ccc(-c2ccc3c(c2)OCCO3)cc1 [#ID 324] | 0.9 | 12 | 570 | –
6 | COc1cccc(-c2ccc(COCCCCCN3C[C@H](O)[C@@H](O)[C@H](O)[C@H]3CO)cc2)c1 [#ID 306] | 0.8 | 15 | 390 | –
7 | OC[C@@H]1[C@@H](O)[C@H](O)[C@@H](O)CN1CCCCCOCC1CCCCC1 [#ID 127] | 9.3 | 290 | 1840 | –
8 | OC[C@@H]1[C@@H](O)[C@H](O)[C@@H](O)CN1CCCCCOCc1ccc(-c2cccc(F)c2)cc1 [#ID 312] | 0.9 | 24 | 1000 | –
9 | C[C@H](OCCCCCN1C[C@H](O)[C@@H](O)[C@H](O)[C@H]1CO)c1ccc(-c2ccccc2)cc1 [#ID 347] | 0.4 | 42 | 400 | –
10 | OC[C@@H]1[C@@H](O)[C@H](O)[C@@H](O)CN1CCCCCOCc1ccc(-c2ccc(F)cc2)cc1 [#ID 311] | 0.9 | 43 | 1400 | –
11 | CC(C)CCCC(C)C1CCC2C3CC=C4CC(OCCCCCN5CC(O)C(O)C(O)C5CO)CCC4(C)C3CCC12C (centres unmarked) [#ID 22] | 6.5 | 170 | 6000 | –
12 | OC[C@@H]1[C@@H](O)[C@H](O)[C@@H](O)CN1CCCCCOCc1ccc(-c2ccccc2)cc1 [#ID 343] | 0.6 | 43 | 250 | –
13 | OC[C@@H]1[C@@H](O)[C@H](O)[C@@H](O)CN1CCCCCOCc1ccc(-c2ccccc2)cc1F [#ID 35] | 4.8 | 21 | 710 | –
14 | N#Cc1ccc(-c2ccc(COCCCCCN3C[C@H](O)[C@@H](O)[C@H](O)[C@H]3CO)cc2)cc1 [#ID 309] | 0.1 | 37 | 420 | –
15 | OC[C@@H]1[C@@H](O)[C@H](O)[C@@H](O)CN1CCCCCOCc1ccc(-c2ccccc2F)cc1 [#ID 330] | 0.8 | 98 | 1600 | –
16 | CCCCN1C[C@H](O)[C@@H](O)[C@@H](O)[C@H]1CO [#ID 153] | 14 | 3600 | 19000 | –
17 | COc1ccccc1-c1ccc(COCCCCCN2C[C@H](O)[C@@H](O)[C@H](O)[C@H]2CO)cc1 [#ID 332] | 0.8 | 130 | 1300 | –
18 | OC[C@@H]1[C@@H](O)[C@H](O)[C@@H](O)CN1CCCCCOCc1ccc(-c2ccccc2)c(C(F)(F)F)c1 [#ID 120] | 2.4 | 16 | 720 | –
19 | N#Cc1cccc(-c2ccc(COCCCCCN3C[C@H](O)[C@@H](O)[C@H](O)[C@H]3CO)cc2)c1 [#ID 310] | 2.5 | 54 | 1000 | –

Row | SMILES | GAA FP% (residual FP-signal) [1] [%] | IC50 [2] [nM] | IC50 [3, 4] [nM] | other results
20 | OC[C@@H]1[C@@H](O)[C@H](O)[C@@H](O)CN1CCCCCOCc1ccc(-c2ccncc2)cc1 [#ID 316] | 1.1 | 89 | 1300 | –
21 | OC[C@@H]1[C@@H](O)[C@H](O)[C@@H](O)CN1CCCCCOCc1ccc(-c2cc(C(F)(F)F)cc(C(F)(F)F)c2)cc1 [#ID 308] | 1.5 | 2400 | 14000 | –
22 | O=C(CCCCCN1C[C@H](O)[C@@H](O)[C@H](O)[C@H]1CO)NC12CC3CC(CC(C3)C1)C2 [#ID 18] | 24 | 360 | 2400 | –
23 | CCCCCCCCOCCCCCN1C[C@H](O)[C@@H](O)[C@H](O)[C@H]1CO [#ID 25] | 13 | 100 | 4100 | –
24 | CC(C)=CCC/C(C)=C/CC/C(C)=C/COCCCCCN1C[C@H](O)[C@@H](O)[C@H](O)[C@H]1CO [#ID 90] | 6.8 | 490 | 2500 | –
25 | OC[C@@H]1[C@@H](O)[C@H](O)[C@@H](O)CN1CCCCCOCc1ccc(-c2ccnc(F)c2)cc1 [#ID 334] | 1.5 | 160 | 1600 | –
26 | CCCCCCCN1C[C@H](O)[C@@H](O)[C@H](O)[C@H]1CO [#ID 31] | 35 | 910 | 60000 | –
27 | CCCCCCCOCCCCCN1C[C@H](O)[C@@H](O)[C@H](O)[C@H]1CO [#ID 23] | – | – | – | GAA FP% (residual FP-signal) ([1]; listed as 23): 16%; IC50 ([2]; listed as 23): 290 nM; IC50 ([3]; Table S2, 4-MU alpha glucoside substrate, listed as 23, read-out: IC50 on GANAB): 7200 nM
28 | OC[C@@H]1[C@@H](O)[C@H](O)[C@@H](O)CN1CCCCCOCc1ccccc1-c1ccccc1 [#ID 339] | 0.9 | 100 | 620 | –
29 | OC[C@@H]1[C@H](O)[C@H](O)[C@@H](O)CN1CCCCCOCC12CC3CC(CC(C3)C1)C2 [#ID 150] | 15 | – | 12000 | –
30 | OC[C@H]1N[C@H](C/C=C/CCOCC23CC4CC(CC(C4)C2)C3)[C@H](O)[C@@H](O)[C@@H]1O [#ID 159] | 23 | 450 | – | –
31 | OC[C@H]1NC[C@H](O)[C@@H](O)[C@H]1O [#ID 154] | 2.4 | – | – | –
32 | OC[C@@H]1[C@H](O)[C@@H](O)[C@H](O)CN1CCCCCOCc1ccc(-c2ccccc2)cc1 [#ID 122] | 35 | 1300 | – | –
33 | OC[C@@H]1[C@@H](O)[C@H](O)[C@@H](O)CN1CCCCCOCC12CC3CC(CC(C3)C1)C2 [Compound 13] | 8.9 | – | 5400 | IC50 ([3]; 4MU-α-glucoside substrate, pH 7.0, mean ± SD, 3 technical replicates, read-out: IC50 GANAB): 5360 ± 570 nM
34 | CCCCCN1C[C@H](O)[C@@H](O)[C@H](O)[C@H]1CO [#ID 297] | 12 | 1700 | – | –
35 | CCCCCCN1C[C@H](O)[C@@H](O)[C@H](O)[C@H]1CO [#ID 29] | – | – | – | GAA FP% (residual FP-signal) ([1]; listed as 29): 49%; IC50 ([2]; listed as 29): 1500 nM
36 | O=S1(=O)O[C@@H]2[C@H](O)[C@@H](O)[C@H](O)[C@@H](CO)[C@@H]2O1 [Compound 12, 1,6-epi-cyclophellitol cyclosulfate, reference compound] | – | – | – | IC50 ([1]; competitive FluoPol-ABPP, rhGAA 80 nM, ABP II 80 nM, pH 5.0, read-out: apparent IC50 (GAA)): 33 nM
37 | CCCCOCCOCCN1C[C@H](O)[C@@H](O)[C@H](O)[C@H]1CO [#ID 200] | 46 | 3900 | – | –
